Data on 27 molecules can be found in patent US10836758B2, “Acyl sulfonamide NaV1.7 inhibitors” (BRISTOL-MYERS SQUIBB COMPANY, priority 2016, dated 2020).

The test deals with NaV1.7 (Homo sapiens (Human), UniProt Q15858). In words: NaV1.7 IC50 of Table 1 (IonWorks Barracuda population patch clamp or ligand binding assay; table does not say which). In kind it is cell-based. The note with it: HEK 293 cells expressing NaV1.7. As to the method:
Ion Works Barracuda population patch clamp (PPC). PPC measurements were performed using an IonWorks Barracuda instrument (Molecular Devices Corporation, Union City, Calif.) using either PatchPlate™ PPC substrates (Molecular Devices Corporation) with 64 apertures per well. The ability to average currents from 64 recordings from each well greatly improves data consistency and recording success rates in the measurement of NaV1.7 mediated ionic currents. Calculated leak current was digitally subtracted from the total cell NaV1.7 current for each sample point acquired.
NaV1.7 currents were elicited by a voltage clamp protocol designed to bias the NaV1.7 channels to their inactivated state as follows. […] This was followed by a relatively brief hyperpolarization to −100 mv for 300 ms, then a 20 msec test pulse to −20 mV to elicit the NaV1.7 current used to measure the pharmacology of all test compounds. Compounds were incubated for 600 sec between the pre- and post-compound reads. […] The same solutions were used to record NaV1.5 currents, with the following voltage clamp protocol. NaV1.5 currents were elicited by a voltage clamp protocol designed to bias the NaV1.5 channels to their inactivated state as follows. […] This was followed by a relatively brief hyperpolarization to −100 mv for 30 ms, then a 20 msec test pulse to −10 mV to elicit the NaV1.5 current used to measure the pharmacology of all test compounds.
HEK 293 cells expressing NaV1.7 and NaV1.5 channels, were used (Essen Biosciences, Ann Arbor, Mich.). […] Cells were grown to 70% to 90% confluence in a flask and removed from the incubator (37° C., 5% CO2) 1 to 3 days after plating. Growth medium was aspirated from the culture flasks. […] Next a total of 2 mL TrypLE (Gibco) solution was added, and the flasks containing cells were sat for 3 min at RT, after which, the cells became visibly rounded and were easily dislodged from the bottom of the flask with a few brief taps on a solid surface. A total of 8 mL of media was added to the flask to inactivate the TrypLE, and the mixture was centrifuged at 910 rpm for 4 min. The cell supernatant was decanted, and the cell pellets were resuspended in 5-6 mL of external solution followed by gentle triturations using a 10 ml pipette, and transferred to a 15 ml conical tube and immediately brought to the IW Barracuda instrument.
Peak membrane currents were analyzed with IW Barracuda software and exported to Excel for further analysis. Concentration response curve fitting was performed with BMS in-house software. IC50 values were obtained by fits of the Hill equation to the average percent inhibition data plotted versus compound concentration. […] Results are reported in Table 1 (NaV1.7 Barra IC50 in nM and NaV1.5 Barra IC50 in nM).
hNaV1.7 binding affinities were determined with a filtration binding assay using purified membranes from HEK293 cells stably expressing hNaV1.7. HEK293 cells from a 10-stack cell culture flask (approximately 10^10 cells) were dissociated, frozen, and stored at −80° C. To prepare membranes, the frozen cell pellet was thawed and suspended in 6 ml hypotonic lysis buffer (50 mM HEPES, 0.1% mammalian protease inhibitor cocktail). 1 ml of resuspended cells was added to an additional 6 ml of lysis buffer and homogenized with 30 strokes of a tight pestle in a glass homogenizer. Homogenate was centrifuged at 1000×g for 10 minutes at 4° C. and the resulting supernatant was further centrifuged at 38,500×g for 60 minutes at 4° C. The resulting pellet was resuspended in binding buffer (50 mM HEPES, 130 mM NaCl, 5.4 mM KCl, 0.8 mM MgCl2, 5 mM glucose, pH 7.4) and needle homogenized with a 25 gauge needle. Protein concentration was determined with a BCA protein assay. Purified membranes were aliquoted, flash frozen in an ethyl alcohol dry ice bath, and stored at −80° C.
On the technique in general: The patch-clamp technique gives a direct electrical read-out from membranes.

pIC50: −log10 of the molar value.

Chain of NaV1.7 (Q15858 whole entry): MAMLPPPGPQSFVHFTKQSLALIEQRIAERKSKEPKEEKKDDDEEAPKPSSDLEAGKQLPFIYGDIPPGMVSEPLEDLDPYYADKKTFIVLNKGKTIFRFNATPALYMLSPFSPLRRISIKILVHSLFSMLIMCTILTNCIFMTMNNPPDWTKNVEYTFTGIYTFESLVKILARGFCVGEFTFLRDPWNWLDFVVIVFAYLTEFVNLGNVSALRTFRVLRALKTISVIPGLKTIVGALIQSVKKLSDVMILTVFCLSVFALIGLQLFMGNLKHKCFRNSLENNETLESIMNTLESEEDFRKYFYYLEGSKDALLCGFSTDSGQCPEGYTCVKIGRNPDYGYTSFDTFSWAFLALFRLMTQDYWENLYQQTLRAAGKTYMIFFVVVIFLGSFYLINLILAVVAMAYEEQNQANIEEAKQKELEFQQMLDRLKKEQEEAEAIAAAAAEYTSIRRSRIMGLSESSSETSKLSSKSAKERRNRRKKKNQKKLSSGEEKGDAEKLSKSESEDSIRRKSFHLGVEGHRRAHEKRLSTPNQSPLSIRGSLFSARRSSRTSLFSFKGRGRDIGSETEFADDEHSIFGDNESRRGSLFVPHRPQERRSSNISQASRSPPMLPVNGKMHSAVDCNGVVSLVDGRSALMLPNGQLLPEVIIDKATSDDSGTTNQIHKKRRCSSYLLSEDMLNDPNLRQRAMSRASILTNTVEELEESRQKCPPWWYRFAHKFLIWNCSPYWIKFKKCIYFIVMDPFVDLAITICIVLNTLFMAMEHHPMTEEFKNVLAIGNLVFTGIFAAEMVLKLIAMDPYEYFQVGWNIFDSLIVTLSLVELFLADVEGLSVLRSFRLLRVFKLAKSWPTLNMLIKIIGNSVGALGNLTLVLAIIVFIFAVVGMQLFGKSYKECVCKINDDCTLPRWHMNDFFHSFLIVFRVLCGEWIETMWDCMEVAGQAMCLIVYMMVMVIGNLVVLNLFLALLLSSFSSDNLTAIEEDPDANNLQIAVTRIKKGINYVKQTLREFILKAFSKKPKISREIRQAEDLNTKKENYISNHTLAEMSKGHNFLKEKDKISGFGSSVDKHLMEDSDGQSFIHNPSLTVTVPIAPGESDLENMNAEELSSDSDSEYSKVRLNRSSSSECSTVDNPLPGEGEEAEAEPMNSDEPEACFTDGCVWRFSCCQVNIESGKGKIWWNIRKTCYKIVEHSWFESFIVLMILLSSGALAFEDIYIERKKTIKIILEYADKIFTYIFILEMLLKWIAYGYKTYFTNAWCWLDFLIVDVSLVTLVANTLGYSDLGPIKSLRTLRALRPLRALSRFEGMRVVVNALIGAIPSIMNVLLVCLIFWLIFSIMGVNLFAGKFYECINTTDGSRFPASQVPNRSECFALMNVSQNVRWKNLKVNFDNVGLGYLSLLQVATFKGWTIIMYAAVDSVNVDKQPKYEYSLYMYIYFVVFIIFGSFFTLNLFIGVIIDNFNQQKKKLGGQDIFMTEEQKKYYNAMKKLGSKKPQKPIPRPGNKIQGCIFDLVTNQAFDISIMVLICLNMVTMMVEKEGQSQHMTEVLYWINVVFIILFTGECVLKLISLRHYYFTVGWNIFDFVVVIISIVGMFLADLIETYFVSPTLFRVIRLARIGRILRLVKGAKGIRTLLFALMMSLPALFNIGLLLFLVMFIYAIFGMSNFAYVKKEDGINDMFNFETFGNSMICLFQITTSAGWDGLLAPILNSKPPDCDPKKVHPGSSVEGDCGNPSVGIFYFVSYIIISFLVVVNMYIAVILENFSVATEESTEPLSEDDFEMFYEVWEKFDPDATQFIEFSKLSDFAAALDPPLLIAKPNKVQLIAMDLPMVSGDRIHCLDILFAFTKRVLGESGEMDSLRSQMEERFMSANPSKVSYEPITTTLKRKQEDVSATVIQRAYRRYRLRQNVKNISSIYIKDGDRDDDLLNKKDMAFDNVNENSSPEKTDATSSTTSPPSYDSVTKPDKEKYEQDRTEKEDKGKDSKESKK

For `NC1CCC(COc2cc(F)c(S(=O)(=O)Nc3ncns3)cc2F)(Cc2ccc(Cl)c(F)c2)CC1` (single isomer, unassigned) [Example 61, 4-((4-amino-1-(4-chloro-3-fluorobenzyl)cyclohexyl)methoxy)-2,5-difluoro-N-(1,2,4-thiadiazol-5-yl)benzenesulfonamide], the pIC50 is 7.28.

`N[C@H]1CC[C@@H](CNc2cc(F)c(S(=O)(=O)Nc3ncns3)cc2Cl)CC1` [Example 19, 4-((((1s,4s)-4-Aminocyclohexyl)methyl)amino)-5-chloro-2-fluoro-N-(1,2,4-thiadiazol-5-yl)benzenesulfonamide] gave a pIC50 of 7.80.

In turn, `O=S(=O)(Nc1ncns1)c1cc(Cl)c(OCCC2(c3ccc(Cl)c(F)c3)CCNCC2)cc1F` [Example 47, 5-Chloro-4-(2-(4-(4-chloro-3-fluorophenyl)piperidin-4-yl)ethoxy)-2-fluoro-N-(1,2,4-thiadiazol-5-yl)benzenesulfonamide] showed a pIC50 of 7.48.

In the case of `O=S(=O)(Nc1ncns1)c1cc(Cl)c(OCCC2(c3ccc(Cl)cc3)CCNCC2)cc1F` [Example 45, 5-Chloro-4-(2-(4-(4-chlorophenyl)piperidin-4-yl)ethoxy)-2-fluoro-N-(1,2,4-thiadiazol-5-yl)benzenesulfonamide], the pIC50 is 7.41.

`O=S(=O)(Nc1nccs1)c1cc(Cl)c(NCCC2CNC2)cc1F` [Example 16, 4-((2-(Azetidin-3-yl)ethyl)amino)-5-chloro-2-fluoro-N-(thiazol-2-yl)benzenesulfonamide]: the negative-log IC50 (pIC50) is 7.54.

As for `O=S(=O)(Nc1nccs1)c1cc(Cl)c(NCC2CNC2)cc1F` [Example 15, 4-((Azetidin-3-ylmethyl)amino)-5-chloro-2-fluoro-N-(thiazol-2-yl)benzenesulfonamide], the negative logarithm of the IC50 (pIC50) is 6.40. Against the preceding molecule, the pIC50 is 1.14 log units lower.

Consider `NC1CCC(COc2cc(F)c(S(=O)(=O)Nc3ncns3)cc2F)(Cc2ccc(Cl)c(F)c2)CC1` (single isomer, unassigned) [Example 62, 4-((4-amino-1-(4-chloro-3-fluorobenzyl)cyclohexyl)methoxy)-2,5-difluoro-N-(1,2,4-thiadiazol-5-yl)benzenesulfonamide], for which the pIC50 is 7.26.

On to `O=S(=O)(Nc1ncns1)c1cc(F)c(OCC2(Cc3ccc(Cl)c(F)c3)CCC(O)CC2)cc1F` (stereo not drawn) [Example 64, 4-((1-(4-chloro-3-fluorobenzyl)-4-hydroxycyclohexyl)methoxy)-2,5-difluoro-N-(1,2,4-thiadiazol-5-yl)benzenesulfonamide], for which the negative logarithm of the IC50 (pIC50) is 6.55.

On to `O=S(=O)(Nc1nccs1)c1cc(Cl)c(NCCC2CCNC2)cc1F` (stereo not drawn) [Example 13, 5-Chloro-2-fluoro-4-((2-(pyrrolidin-3-yl)ethyl)amino)-N-(thiazol-2-yl)benzenesulfonamide], for which the negative logarithm of the IC50 (pIC50) is 7.77.

Regarding `O=S(=O)(Nc1nccs1)c1cc(Cl)c(NC2CCC3CNCC32)cc1F` (stereo not drawn) [Example 65, 5-chloro-2-fluoro-4-((octahydrocyclopenta[c]pyrrol-4-yl)amino)-N-(thiazol-2-yl)benzenesulfonamide], the negative logarithm of the IC50 (pIC50) was 7.01.

Molecule `CN(C)C1CCC(CNc2cc(F)c(S(=O)(=O)Nc3nccs3)cc2Cl)CC1` (stereo not drawn) [Example 24, 5-Chloro-4-(((4-(dimethylamino)cyclohexyl)methyl)amino)-2-fluoro-N-(thiazol-2-yl)benzenesulfonamide] showed a pIC50 of 7.16.

For `CC1(CCOc2cc(F)c(S(=O)(=O)Nc3ncns3)cc2F)CCC(N)CC1` (single isomer, unassigned) [Example 57, 4-(2-((1s,4s)-4-Amino-1-methylcyclohexyl)ethoxy)-2,5-difluoro-N-(1,2,4-thiadiazol-5-yl)benzenesulfonamide], the pIC50 is 6.42.

On to `O=S(=O)(Nc1nccs1)c1cc(Cl)c(N2CCC(CO)C2)cc1F` (stereo not drawn) [Example 70, 5-chloro-2-fluoro-4-(3-(hydroxymethyl)pyrrolidin-1-yl)-N-(thiazol-2-yl)benzenesulfonamide], for which the pIC50 was 6.09. This pIC50 lies 0.33 log units lower than the previous one.

`NCC1CCCC(CNc2cc(F)c(S(=O)(=O)Nc3nccs3)cc2Cl)C1` (stereo not drawn) [Example 32, 4-(((3-(Aminomethyl)cyclohexyl)methyl)amino)-5-chloro-2-fluoro-N-(thiazol-2-yl)benzenesulfonamide]: the negative-log IC50 (pIC50) was 7.55.

Regarding `O=S(=O)(Nc1nccs1)c1cc(Cl)c(NCC2CCC(N3CCC3)CC2)cc1F` (stereo not drawn) [Example 25, 4-(((4-(Azetidin-1-yl)cyclohexyl)methyl)amino)-5-chloro-2-fluoro-N-(thiazol-2-yl)benzenesulfonamide], the pIC50 was 7.30.

`NC1CCCC(Nc2cc(F)c(S(=O)(=O)Nc3nccs3)cc2Cl)C1` (stereo not drawn) [Example 28, 4-((3-Aminocyclohexyl)amino)-5-chloro-2-fluoro-N-(thiazol-2-yl)benzenesulfonamide] gave a pIC50 of 7.57.

Molecule `NC1CCCC1CNc1cc(F)c(S(=O)(=O)Nc2nccs2)cc1Cl` (stereo not drawn) [Example 31, 4-(((2-Aminocyclopentyl)methyl)amino)-5-chloro-2-fluoro-N-(thiazol-2-yl)benzenesulfonamide] had a negative-log IC50 (pIC50) of 7.92. This pIC50 is 0.35 log units higher than that of the molecule before.

For `O=S(=O)(Nc1nccs1)c1cc(Cl)c(NCC2CNCCO2)cc1F` (stereo not drawn) [Example 6, 5-Chloro-2-fluoro-4-((morpholin-2-ylmethyl)amino)-N-(thiazol-2-yl)benzenesulfonamide], the pIC50 was 7.17.

`O=S(=O)(Nc1nccs1)c1cc(Cl)c(N2CCC3CCNCC3C2)cc1F` (stereo not drawn) [Example 67, 5-chloro-2-fluoro-4-(octahydro-2,7-naphthyridin-2(1H)-yl)-N-(thiazol-2-yl)benzenesulfonamide] showed a pIC50 of 6.57.

Regarding `N[C@H]1CC[C@H](CNc2cc(F)c(S(=O)(=O)Nc3nccs3)cc2Cl)CC1` [Example 21, 4-((((1r,4r)-4-Aminocyclohexyl)methyl)amino)-5-chloro-2-fluoro-N-(thiazol-2-yl)benzenesulfonamide], the pIC50 is 6.40.

`NC1CCC(CCOc2cc(F)c(S(=O)(=O)Nc3ncns3)cc2F)CC1` (stereo not drawn) [Example 60, 4-(2-(4-Aminocyclohexyl)ethoxy)-2,5-difluoro-N-(1,2,4-thiadiazol-5-yl)benzenesulfonamide] gave a negative-log IC50 (pIC50) of 6.44.

Take `NC1CCC(CCOc2cc(F)c(S(=O)(=O)Nc3ncns3)cc2F)(c2ccccc2)CC1` (single isomer, unassigned) [Example 50, 4-(2-(4-amino-1-phenylcyclohexyl)ethoxy)-2,5-difluoro-N-(1,2,4-thiadiazol-5-yl)benzenesulfonamide]: the pIC50 is 6.33.

`O=S(=O)(Nc1nccs1)c1cc(Cl)c(NC[C@@H]2CCCNC2)cc1F` [Example 43, (R)-5-Chloro-2-fluoro-4-((piperidin-3-ylmethyl)amino)-N-(thiazol-2-yl)benzenesulfonamide] had a pIC50 of 6.57.

Take `N[C@H]1CC[C@@H](CNc2cc(F)c(S(=O)(=O)Nc3nccs3)cc2Cl)CC1` [Example 20, 4-((((1s,4s)-4-Aminocyclohexyl)methyl)amino)-5-chloro-2-fluoro-N-(thiazol-2-yl)benzenesulfonamide]: the negative-log IC50 (pIC50) is 8.15.

`CN1CCC(CCNc2cc(F)c(S(=O)(=O)Nc3nccs3)cc2Cl)CC1` [Example 5, 5-Chloro-2-fluoro-4-((2-(1-methylpiperidin-4-yl)ethyl)amino)-N-(thiazol-2-yl)benzenesulfonamide]: the pIC50 is 7.15.

Regarding `O=S(=O)(Nc1nccs1)c1cc(Cl)c(NCCC2(O)CCCC2)cc1F` [Example 35, 5-Chloro-2-fluoro-4-((2-(1-hydroxycyclopentyl)ethyl)amino)-N-(thiazol-2-yl)benzenesulfonamide], the pIC50 was 7.00.

In turn, `O=S(=O)(Nc1ncns1)c1cc(F)c(OCCC2(c3ccc(Cl)c(F)c3)CCNCC2)cc1F` [Example 46, 4-(2-(4-(4-Chloro-3-fluorophenyl)piperidin-4-yl)ethoxy)-2,5-difluoro-N-(1,2,4-thiadiazol-5-yl)benzenesulfonamide] showed a pIC50 of 6.96.

In general, pIC50 refers to −log10 of the IC50, conventionally taken in molar units. A lower pIC50 goes with a large IC50.
